Assay [1] deals with MCF7. Nature of the assay: Cytotoxicity against ER/PR-positive HER2-negative human MCF7 cells harbouring […] assessed as reduction in cell viability at 100 uM incubated for 48 hrs by resazurin dye based assay relative to control. In kind it is functional.
The subject of assay [2] is SK-BR-3. Nature of the assay: Cytotoxicity against ER/PR-negative HER2-positive human SK-BR-3 cells harbouring […] assessed as reduction in cell viability at 100 to 200 uM incubated for 48 hrs by resazurin dye based assay relative to control. The assay is classed as functional. Conditions: dose 100-200 µM.
For assay [3], the system named is MCF7. Nature of the assay: Cytotoxicity against ER/PR-positive HER2-negative human MCF7 cells harbouring […] assessed as inhibition of cell growth incubated for 48 hrs by resazurin dye based assay. The assay is classed as functional. To be noted: MCF7, 48 h. On the technique in general: Resazurin is reduced to fluorescent resorufin, in cell work by metabolically active cells.

For assay [4], the system named is SK-BR-3. Briefly: Cytotoxicity against ER/PR-negative HER2-positive human SK-BR-3 cells harbouring […] assessed as inhibition of cell growth incubated for 48 hrs by resazurin dye based assay. Conditions: SK-BR-3, 48 h. The assay is classed as functional.
Assay [5] addresses Sigma non-opioid intracellular receptor 1 (Homo sapiens, UniProt Q99720). Nature of the assay: Binding affinity to sigma 1 receptor (unknown origin) assessed as inhibition constant by radioligand binding assay.
The target of assay [6] is Delta-type opioid receptor (Homo sapiens, UniProt P41143). Briefly: Binding affinity to DOR (unknown origin) assessed as inhibition constant by radioligand binding assay.
Sequence of Delta-type opioid receptor (P41143 whole entry): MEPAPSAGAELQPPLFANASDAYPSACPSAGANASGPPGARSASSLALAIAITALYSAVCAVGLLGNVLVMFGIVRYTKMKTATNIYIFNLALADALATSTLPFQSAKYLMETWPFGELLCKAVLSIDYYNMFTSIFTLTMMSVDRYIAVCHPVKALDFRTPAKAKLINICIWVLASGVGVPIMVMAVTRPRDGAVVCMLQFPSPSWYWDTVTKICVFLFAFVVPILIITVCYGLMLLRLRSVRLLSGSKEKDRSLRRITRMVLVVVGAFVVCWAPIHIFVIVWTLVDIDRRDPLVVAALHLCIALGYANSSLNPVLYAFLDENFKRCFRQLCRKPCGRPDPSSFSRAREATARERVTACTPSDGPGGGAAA
Assay [7] addresses Sigma intracellular receptor 2 (Homo sapiens, UniProt Q5BJF2). Nature of the assay: Binding affinity to sigma 2 receptor (unknown origin) assessed as inhibition constant by radioligand binding assay.
The target in another assay is Mu-type opioid receptor (Homo sapiens, UniProt P35372). Nature of the assay: Binding affinity to MOR (unknown origin) assessed as inhibition constant by radioligand binding assay.
Sequence of Mu-type opioid receptor (P35372 whole entry): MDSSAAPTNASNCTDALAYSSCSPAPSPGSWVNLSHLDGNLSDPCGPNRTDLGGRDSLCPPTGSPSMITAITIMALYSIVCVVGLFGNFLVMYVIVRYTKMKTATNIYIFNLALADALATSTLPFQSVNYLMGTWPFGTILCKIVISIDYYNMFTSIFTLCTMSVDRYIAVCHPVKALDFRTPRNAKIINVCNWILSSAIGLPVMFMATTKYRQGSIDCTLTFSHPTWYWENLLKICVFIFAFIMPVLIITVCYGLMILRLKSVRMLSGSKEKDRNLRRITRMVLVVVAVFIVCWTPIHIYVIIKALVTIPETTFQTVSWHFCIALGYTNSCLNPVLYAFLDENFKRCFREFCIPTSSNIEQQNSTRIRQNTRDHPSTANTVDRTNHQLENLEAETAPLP
The species named for a further assay is Homo sapiens. Briefly: Selectivity index, ratio of Ki for sigma 1 receptor (unknown origin) to Ki for sigma 2 receptor (unknown origin).
Assay [8] deals with Kappa-type opioid receptor (Homo sapiens, UniProt P41145). Nature of the assay: Binding affinity to KOR (unknown origin) assessed as inhibition constant by radioligand binding assay.
Sequence of Kappa-type opioid receptor (P41145 whole entry): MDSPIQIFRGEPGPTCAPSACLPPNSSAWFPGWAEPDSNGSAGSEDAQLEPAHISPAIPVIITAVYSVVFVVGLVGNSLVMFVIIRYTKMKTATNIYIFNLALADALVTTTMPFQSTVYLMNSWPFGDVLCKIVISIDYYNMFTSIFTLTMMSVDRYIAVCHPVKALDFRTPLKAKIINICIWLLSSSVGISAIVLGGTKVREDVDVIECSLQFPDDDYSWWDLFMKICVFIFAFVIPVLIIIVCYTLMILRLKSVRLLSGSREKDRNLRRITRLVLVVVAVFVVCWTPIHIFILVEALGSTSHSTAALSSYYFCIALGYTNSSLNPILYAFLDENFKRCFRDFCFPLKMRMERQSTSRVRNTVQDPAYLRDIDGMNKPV

Consider 10 compounds from ChEMBL document CHEMBL5113446, “Design, synthesis and biological evaluation of novel aminopropylcarboxamide derivatives as sigma ligands” (Bioorg Med Chem Lett, 2022).

The structures appear in SMILES notation. Where only a bound is given, the exact number is not on record here.

By IC50 is commonly meant the concentration that gives 50% inhibition. As a reminder, the Ki is the equilibrium dissociation constant of an inhibitor or competing ligand from its target.

Sequence of Sigma intracellular receptor 2 (Q5BJF2 whole entry): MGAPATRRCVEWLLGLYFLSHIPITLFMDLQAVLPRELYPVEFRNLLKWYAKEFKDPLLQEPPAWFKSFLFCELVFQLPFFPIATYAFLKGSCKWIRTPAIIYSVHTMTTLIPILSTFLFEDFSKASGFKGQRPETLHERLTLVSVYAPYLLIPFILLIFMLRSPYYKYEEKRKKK
Sequence of Sigma non-opioid intracellular receptor 1 (Q99720 whole entry): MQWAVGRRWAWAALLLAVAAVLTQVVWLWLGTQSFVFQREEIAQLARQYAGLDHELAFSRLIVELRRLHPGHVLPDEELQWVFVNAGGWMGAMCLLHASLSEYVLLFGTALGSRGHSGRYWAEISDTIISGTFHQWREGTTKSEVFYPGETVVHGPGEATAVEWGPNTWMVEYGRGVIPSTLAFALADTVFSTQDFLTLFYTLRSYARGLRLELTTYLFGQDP

For `O=C(CCCN1CCC(O)(c2ccc(Cl)cc2)CC1)c1ccc(F)cc1` [HALOPERIDOL], the Activity with MCF7 [1] was 79%; in the assay on SK-BR-3 [2], 48%. The IC50 in the assay with MCF7 [3] is 68 µM; in the assay on SK-BR-3 [4], 131 µM.

With `COc1ccc(CN(C)CCCNC(=O)c2ccc3ccccc3n2)cc1OC`, the Ki in assay [5] was 0.573 µM; in [6], greater than 10 µM; in [7], 0.016 µM; at Mu-type opioid receptor, 0.056 µM; in assay [8] it was greater than 10 µM. Also, the values for the Activity entry in the assay on MCF7 [1] and in the assay on SK-BR-3 [2] were “<=50%” and “<=60%”, respectively. The IC50 with MCF7 [3] (read-out: IC50) was determined as 251 µM; with SK-BR-3 [4], 88 µM. The Ratio Ki in the assay filed under Homo sapiens stood at 35.

For the compound `CN(CCCNC(=O)c1ccc2ccccc2c1)Cc1ccccc1`, the inhibitory constant (Ki) was 0.104 µM in assay [5]; greater than 10 µM in assay [6]; 0.106 µM in assay [7]; 3.43 µM at Mu-type opioid receptor; greater than 10 µM in [8]. The Ratio Ki in the assay filed under Homo sapiens was 1.

For `CN(CCCNC(=O)c1ccc2ccccc2n1)Cc1ccccc1`, the Ki in assay [5] is 0.016 µM; in assay [6] it was greater than 10 µM; in [7], 0.021 µM; on Mu-type opioid receptor, 2.76 µM; in assay [8], 3.58 µM. Further, the Activity worked out at 30% in the assay with MCF7 [1] and 50% in the assay with SK-BR-3 [2]. The IC50 with MCF7 [3] (read-out: IC50) came out at 1640 µM; in the assay with SK-BR-3 [4] it was 169 µM. In the assay filed under Homo sapiens, the Ratio Ki worked out at 0.7.

`Fc1ccc(-n2cc(CCCCN3CCC4(CC3)OCc3ccccc34)c3ccccc32)cc1` [SIRAMESINE]: the Activity in the assay with MCF7 [1] turned out to be 96%; in the assay on SK-BR-3 [2] it was 98%. The values for the IC50 in the assay with MCF7 [3] (read-out: IC50) and in the assay on SK-BR-3 [4] were 13 µM and 14 µM, respectively.

As for `CN(CCCNC(=O)c1ccco1)Cc1ccccc1`, the Ki was greater than 10 µM in [5]; greater than 10 µM in [6]; 1.07 µM in assay [7]; greater than 10 µM on Mu-type opioid receptor; greater than 10 µM in assay [8].

Regarding `COc1ccc(CN(C)CCCNC(=O)c2cc3ccccc3o2)cc1OC`, the Ki is 0.375 µM in [5]; greater than 10 µM in assay [6]; 0.046 µM in [7]; 2.9 µM at Mu-type opioid receptor; greater than 10 µM in assay [8]. Further, the Activity entry with MCF7 [1] and in the assay on SK-BR-3 [2] was “<=60%” each time. Also, the IC50 turned out to be 36 µM in the assay with MCF7 [3] (read-out: IC50) and 35 µM with SK-BR-3 [4]. The Ratio Ki in the assay filed under Homo sapiens was found to be 8.1.

As for `CN(CCCNC(=O)c1cc2ccccc2o1)Cc1ccccc1`, the Ki in [5] was 0.012 µM; in [6], greater than 10 µM; in [7] it was 0.0099 µM; at Mu-type opioid receptor it was 1.77 µM; in assay [8], 2.39 µM. The Activity entry in the assay on MCF7 [1] is recorded as “<=50%”; in the assay with SK-BR-3 [2] it was 50%. Moreover, the figures for the half-inhibitory concentration (IC50) in the assay on MCF7 [3] (read-out: IC50) and in the assay with SK-BR-3 [4] were 86 µM and 52 µM, respectively. In the assay listed under Homo sapiens, the Ratio Ki came to 1.2.

Take `COc1ccc(CN(C)CCCNC(=O)c2ccco2)cc1OC`: the Ki in assay [5] was greater than 10 µM; in assay [6], greater than 10 µM; in assay [7] it was greater than 5 µM; on Mu-type opioid receptor, greater than 10 µM; in assay [8] it was 4.17 µM.

For the compound `COc1ccc(CN(C)CCCNC(=O)c2ccc3ccccc3c2)cc1OC`, the Ki was 1.44 µM in [5]; greater than 10 µM in [6]; 0.126 µM in assay [7]; 1.22 µM on Mu-type opioid receptor; greater than 10 µM in [8]. Further, the Ratio Ki in the assay listed under Homo sapiens was 11.
